Assay results reported in patent US20240360177A1, “PEPTIDES WITH ANTIMICROBIAL ACTIVITIES” (priority 2021, published 2024).
≈ marks a conversion by molar mass, not a printed value. Where two headings read alike, the source gives them in different places. Starred links: 1 amine or outer side, 2 acyl side, 3 side chain; linkers in the order of their positions; H or OH if unused. Non-standard residues stand in square brackets, D forms with d. Residues, ends and D or L forms follow the SMILES beside them. NH(CH2)9CO = O=C(CCCCCCCCCN[*:1])[*:2]; Aoc = NCCCCCCCC(=O)O; βAla = NCCC(=O)O

Legend:
[1] = system: Rhizopus arrhizus
[2] = system: Paecilomyces variotii
[3] = system: Fusarium spp.
[4] = system: Scedosporium spp.
[5] = system: Lomentospora prolificans
[6] = system: C. parapsilosis; conditions: 24 h
[7] = in vitro; conditions: human
[8] = system: C. dubliniensis; conditions: 24 h
[9] = system: Coccidioides species; conditions: N = 3 strains; 48-72 hrs; >50% inhibition
[10] = system: C. gattii; conditions: 72 h
[11] = system: C. albicans; conditions: 24 h
[12] = system: C. glabrata; conditions: 24 h
[13] = system: C. auris; conditions: 24 h
[14] = system: C. krusei; conditions: 24 h
[15] = system: C. neoformans; conditions: 72 h
[16] = system: C. tropicalis; conditions: 24 h
[17] = system: Candida spp.
[18] = Acute toxicity in CD-1 mice; conditions: both sexes, mouse, in vivo
Procedure: Acute toxicity and subacute toxicity of ACPs were tested in CD-1 mice. In the acute toxicity study, groups of CD-1 male or female mice were administered single intravenous or intraperitoneal escalating doses (n=2-3 per dose) of the peptides dissolved in normal saline for injection or in phosphate buffered saline. The intravenous dose was administered via tail vein with a slow push over 15-20 seconds. Doses were escalated based on tolerability.

[19] = system: Pseudomonas aeruginosa ATCC 27853; assay type: cell-based
[20] = system: Escherichia coli ATCC 25922; assay type: cell-based
[21] = system: Staphylococcus aureus ATCC 29213; assay type: cell-based
[22] = EC50 cytotoxicity in HepG2, intracellular ATP assay
[23] = single IP dose, read-out: Tolerated single intraperitoneal dose
[24] = single IV dose via tail vein, read-out: Tolerated single intravenous dose

Compound	MIC Range Paecilomyces variotii ([2]; N = 1 strain, 48 hrs) [µg/mL]	MIC C. parapsilosis [6] [µg/mL]	MIC Range Rhizopus arrhizus ([1]; 24 h) [µg/mL]	EC50 [7, 22] [µg/mL]	MIC Range Fusarium spp. ([3]; 48 h) [µg/mL]	MIC C. dubliniensis [8] [µg/mL]	MIC Range Coccidioides species [9] [µg/mL]	MIC C. gattii [10] [µg/mL]	MIC Range Scedosporium spp. ([4]; 72 h) [µg/mL]	MIC C. albicans [11] [µg/mL]	MIC C. glabrata [12] [µg/mL]	MIC C. auris [13] [µg/mL]	MIC Range Paecilomyces variotii ([2]; 48 h) [µg/mL]	MIC C. krusei [14] [µg/mL]	MIC C. neoformans [15] [µg/mL]	MIC Range Lomentospora prolificans [5] [µg/mL]	MIC C. tropicalis [16] [µg/mL]	MTD [18, 23] [mg/kg]	MTD [18, 24] [mg/kg]	also measured
CC[C@@H]([C@H](C)O)n1ncn(-c2ccc(N3CCN(c4ccc(OC[C@@H]5CO[C@@](Cn6cncn6)(c6ccc(F)cc6F)C5)cc4)CC3)cc2)c1=O [POS, posaconazole, reference compound]	≤0.03																			MIC Range Rhizopus arrhizus ([1]; N = 3 strains, 24 hrs): 0.12 to 0.25 µg/mL
C[C@@H](c1ncncc1F)[C@](O)(Cn1cncn1)c1ccc(F)cc1F [VOR, voriconazole, reference compound]	0.12 (≈ 0.344 µM)																			MIC Range Fusarium spp. ([3]; N = 3 strains, 48 hrs): 4 to 16 µg/mL; MIC Range Scedosporium spp. ([4]; N = 2 strains, 72 hrs): 1 to 2 µg/mL; MIC Range Lomentospora prolificans ([5]; N = 1 strain): 16 µg/mL (≈ 45.8 µM)
N=C(N)NCCC[C@@H](N)C(=O)N[C@@H](CCCNC(=N)N)C(=O)N[C@H](CCCNC(=N)N)C(=O)NCC(=O)N[C@H](CCCNC(=N)N)C(=O)N[C@@H](CCCNC(=N)N)C(=O)N[C@H](CCCNC(=N)N)C(=O)NCC(=O)N[C@H](CCCNC(=N)N)C(=O)N[C@@H](CCCNC(=N)N)C(=O)N[C@H](CCCNC(=N)N)C(=O)N[C@@H](CCCNC(=N)N)C(=O)NCC(=O)N[C@H](CCCNC(=N)N)C(=O)N[C@@H](CCCNC(=N)N)C(=O)N[C@H](CCCNC(=N)N)C(=O)N[C@@H](CCCNC(=N)N)C(N)=O [SEQ ID NO: 4, rRr-G-rRr-G-rRrR-G-rRrR-NH2] (H-[dR]R[dR]G[dR]R[dR]G[dR]R[dR]RG[dR]R[dR]R-NH2)		0.25 (≈ 0.105 µM)	0.5 to 8	> 300	0.06 to 8	0.25 (≈ 0.105 µM)	0.25 to 0.5	0.5 (≈ 0.211 µM)	≤0.12	0.5 (≈ 0.211 µM)	0.25 (≈ 0.105 µM)	8 (≈ 3.37 µM)	0.25 (≈ 0.105 µM)	0.5 (≈ 0.211 µM)	0.25 (≈ 0.105 µM)	≤0.12	0.25 (≈ 0.105 µM)			
N=C(N)NCCC[C@@H](N)C(=O)N[C@@H](CCCNC(=N)N)C(=O)N[C@H](CCCNC(=N)N)C(=O)NCC(=O)N[C@H](CCCNC(=N)N)C(=O)N[C@@H](CCCNC(=N)N)C(=O)N[C@H](CCCNC(=N)N)C(=O)NCC(=O)N[C@H](CCCNC(=N)N)C(=O)N[C@@H](CCCNC(=N)N)C(=O)N[C@H](CCCNC(=N)N)C(=O)N[C@@H](CCCNC(=N)N)C(=O)NCC(=O)N[C@H](CCCNC(=N)N)C(=O)N[C@@H](CCCNC(=N)N)C(=O)N[C@H](CCCNC(=N)N)C(=O)N[C@@H](CCCNC(=N)N)C(=O)O [SEQ ID NO: 3, rRr-G-rRr-G-rRrR-G-rRrR] (H-[dR]R[dR]G[dR]R[dR]G[dR]R[dR]RG[dR]R[dR]R-OH)		0.25 (≈ 0.105 µM)	1 to 8	> 300	0.12 to 0.5	0.25 (≈ 0.105 µM)	0.25 to 0.5	0.5 (≈ 0.21 µM)	≤0.12	0.5 (≈ 0.21 µM)	0.25 (≈ 0.105 µM)	4 (≈ 1.68 µM)	0.25 (≈ 0.105 µM)	1 (≈ 0.421 µM)	0.5 (≈ 0.21 µM)	≤0.12	0.25 (≈ 0.105 µM)			EC50 ([7]; EC50 cytotoxicity in HepG2 cells (50% cell viability)): > 300 µg/mL; MIC50 against Candida spp. [17]: 0.5 µg/mL (≈ 0.21 µM); MIC90 against Candida spp. [17]: 4 µg/mL (≈ 1.68 µM)
N=C(N)NCCC[C@@H](N)C(=O)N[C@@H](CCCNC(=N)N)C(=O)N[C@H](CCCNC(=N)N)C(=O)NCCC(=O)N[C@H](CCCNC(=N)N)C(=O)N[C@@H](CCCNC(=N)N)C(=O)N[C@H](CCCNC(=N)N)C(=O)NCCC(=O)N[C@H](CCCNC(=N)N)C(=O)N[C@@H](CCCNC(=N)N)C(=O)N[C@H](CCCNC(=N)N)C(=O)N[C@@H](CCCNC(=N)N)C(=O)NCCC(=O)N[C@H](CCCNC(=N)N)C(=O)N[C@@H](CCCNC(=N)N)C(=O)N[C@H](CCCNC(=N)N)C(=O)N[C@@H](CCCNC(=N)N)C(=O)NCCCCCCCC(=O)O [SEQ ID NO: 16, rRr-(Apr)-rRr-(Apr)-rRrR-(Apr)-rRrR-(Aoa)] (H-[dR]R[dR][βAla][dR]R[dR][βAla][dR]R[dR]R[βAla][dR]R[dR]R[Aoc]-OH)		0.5 (≈ 0.195 µM)	2 to 64	> 300	0.25 to 1	0.5 (≈ 0.195 µM)	0.5 (≈ 0.195 µM)	0.25 (≈ 0.0977 µM)		1 (≈ 0.391 µM)	0.5 (≈ 0.195 µM)	0.5 (≈ 0.195 µM)	0.25 (≈ 0.0977 µM)	0.5 (≈ 0.195 µM)	0.5 (≈ 0.195 µM)	0.25 (≈ 0.0977 µM)	0.5 (≈ 0.195 µM)	10 to 15	5 to 7.5	
N=C(N)NCCC[C@@H](N)C(=O)N[C@@H](CCCNC(=N)N)C(=O)N[C@H](CCCNC(=N)N)C(=O)NCCCCCCCCCC(=O)N[C@H](CCCNC(=N)N)C(=O)N[C@@H](CCCNC(=N)N)C(=O)N[C@H](CCCNC(=N)N)C(=O)NCCCCCCCC(=O)N[C@H](CCCNC(=N)N)C(=O)N[C@@H](CCCNC(=N)N)C(=O)N[C@H](CCCNC(=N)N)C(=O)N[C@@H](CCCNC(=N)N)C(=O)NCCCCCCCC(=O)N[C@H](CCCNC(=N)N)C(=O)N[C@@H](CCCNC(=N)N)C(=O)N[C@H](CCCNC(=N)N)C(=O)N[C@@H](CCCNC(=N)N)C(N)=O [SEQ ID NO: 33, rRr-(Ada)-rRr-(Aoa)-rRrR-(Aoa)-rRrR-NH2] (H-[dR]R[dR][NH(CH2)9CO][dR]R[dR][Aoc][dR]R[dR]R[Aoc][dR]R[dR]R-NH2)		0.5 (≈ 0.188 µM)		> 300	0.25 to 0.5	0.25 (≈ 0.0941 µM)		0.5 (≈ 0.188 µM)	0.25 (≈ 0.0941 µM)	1 (≈ 0.377 µM)	0.5 (≈ 0.188 µM)	0.5 (≈ 0.188 µM)		0.5 (≈ 0.188 µM)	0.25 (≈ 0.0941 µM)		0.5 (≈ 0.188 µM)	10 to 15	5 to 7.5	MIC Pseudomonas aeruginosa [19]: 32 µg/mL (≈ 12.1 µM); MIC Escherichia coli [20]: 16 µg/mL (≈ 6.03 µM); MIC Staphylococcus aureus [21]: 16 µg/mL (≈ 6.03 µM)
